Laboratory results reported in paper PMC8537746, “New Pyridone-Based Derivatives as Cannabinoid Receptor Type 2 Agonists” (International Journal of Molecular Sciences, 2021).

Tests used:
[1] = biological target: CB2; design: method as in PMID 11597467, PMID 23623258, PMID 23395112, PMID 21702498, PMID 17004710; conditions: Figure 1; cited from earlier work
[2] = system: HL-60 cells; test: Neutral red uptake cell viability assay, HL-60; conditions: Homo sapiens, HL-60, 72 h, read-out: IC50 HL-60
Procedure: (§1) Two different cell lines were used: HepG2 as a model of hepatic tissue; and HL-60 cells as a model of blood cells. Low levels of expression of CBR exists in normal liver however, several pathological conditions have shown high upregulation of hepatic CB2R [28].
(§2) Cell lines were grown in culture media supplemented with 10% fetal bovine serum (FBS), 100 U/mL of penicillin, 100 μg/mL of streptomycin and 1% of non-essential aminoacids. Cells between passage 5 to 10 were used in experiments. Dulbecco’s Modified Eagle Medium (DMEM) was used for HepG2 cells and Roswell Park Memorial Institute (RPMI) was used for HL-60 cells. […] All cellular lines used were provided by Dr. Mario Faúndez, Laboratory of Molecular Pharmacology, Faculty of Chemistry and Pharmacy, Pontificia Universidad Católica de Chile.
(§3) The effect of compounds in cell viability was determined by Neutral Red uptake assay. Cells were seeded in 100 μL of media at a density of 10^4 cells/well in 96-well microtiter plates. Solutions of compounds were previously prepared in DMSO and 1 μL of the corresponding solution was added to each well. The final volume of each well was adjusted to 200 μL. After 72 h of incubation, culture media was removed and 100 μL of 10 μg/mL neutral red solution prepared in culture media was added to each well and incubated for 3 h. Then, media was aspirated, the plate was washed three times with PBS 1X and 100 μL of neutral red distain solution (50:49:1 ethanol:water:glacial acetic acid) was added. The plate was placed for 15 min in a shaker and fluorescence was measured using Cytation 5 apparatus (Biotek, Winooski, VT, USA) at 530/645 nm excitation/emission wavelengths.

[3] = biological target: T1, human cannabinoid receptor type II (CB2R) (Homo sapiens, UniProt P34972); test: Human CB2R cAMP agonist cellular functional assay (Eurofins Cerep); assay type: cell-based; conditions: for % CB2R Agonist Response: 10 µM, CHO cells expressing hCB2R, percentage relative to control (100 nM WIN55212-2), rounded mean of two assays; for EC50: EC50, intracellular cAMP, CHO-hCB2R
T1 construct: host or cells: CHO cells
Procedure: Functional evaluation was carried out by Eurofins Cerep service assay: CB2 Human Cannabinoid GPCR Cell Based Agonist cAMP Assay. CHO cells stably expressing hCB2R (Eurofins Cerep) are suspended in HBSS buffer (Invitrogen) complemented with 20 mM HEPES (pH 7.4), then distributed in microplates at a density of 7.5 × 10^3 cells/well in the presence of either of the following: HBSS (basal control), the reference agonist at 100 nM (stimulated control) or various concentrations (EC50 determination), or the test compounds. Thereafter, the adenylyl cyclase activator NKH 477 is added at a final concentration of 3 μM. Following 10 min incubation at 37 °C, the cells are lysed, and the fluorescence acceptor (D2-labeled cAMP) and fluorescence donor (anti-cAMP antibody labeled with europium cryptate) are added. After 60 min at room temperature, the fluorescence transfer is measured at λex = 337 nm and λem = 620 and 665 nm using a microplate reader (Envison, Perkin Elmer). The cAMP concentration is determined by dividing the signal measured at 665 nm by that measured at 620 nm (ratio). The results are expressed as a percent of the control response to 100 nM WIN55212-2. The standard reference agonist is WIN 55212-2, which is tested in each experiment at several concentrations to generate a concentration-response curve from which its EC50 value is calculated.

[4] = system: HepG2 cells; test: Neutral red uptake cell viability assay, HepG2; conditions: for IC50: Homo sapiens, HepG2, 72 h, read-out: IC50 HepG2
Procedure: as §1, §2, §3

[5] = Neutral red uptake cell viability assay, HL-60; conditions: human
Procedure: as §1, §2, §3

T1 sequence (P34972 whole entry): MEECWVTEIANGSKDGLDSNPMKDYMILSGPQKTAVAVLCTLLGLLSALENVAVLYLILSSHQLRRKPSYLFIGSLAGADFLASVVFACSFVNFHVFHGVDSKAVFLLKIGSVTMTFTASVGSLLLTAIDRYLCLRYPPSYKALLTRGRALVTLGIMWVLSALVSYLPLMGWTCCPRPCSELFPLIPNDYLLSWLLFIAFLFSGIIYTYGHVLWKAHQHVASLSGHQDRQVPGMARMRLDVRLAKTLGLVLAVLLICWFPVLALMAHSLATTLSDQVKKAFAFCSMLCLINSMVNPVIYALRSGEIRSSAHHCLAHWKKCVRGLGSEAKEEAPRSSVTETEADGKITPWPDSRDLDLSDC

melting point	% CB2R Agonist Response [3]	Structure (SMILES)	further results
		CCOC(=O)CC#N [Compound 1]	Ki [1]: 0.2 nM
		N#CCC(=O)NN [Compound 2]	Ki [1]: 14 nM
119 to 121 °C		Cc1cc(C)n(C(=O)CC#N)n1 [Compound 3]	Ki [1]: 0.6 nM
		COc1ccc2c(=O)c(C(=O)NC3CCCCC3)cn(Cc3ccc(F)cc3)c2n1 [Compound 4]	Ki [1]: 11 nM
		O=C(NC1CCCCCC1)c1cn2c3c(cccc3c1=O)OCC2c1ccccc1 (stereo not drawn) [Compound 5]	Ki [1]: 0.81 nM
163 to 165 °C		Cc1cc(C)n(-c2ccccc2)c(=O)c1C(=O)Nc1nc2ccccc2s1 [Compound 7a, N-(benzo[d]thiazol-2-yl)-4,6-dimethyl-2-oxo-1-phenyl-1,2-dihydropyridine-3-carboxamide]	
177 to 179 °C	8%	Cc1cc(C)n(-c2ccccc2)c(=O)c1C(=O)Nc1nc2ccccc2[nH]1 [Compound 7b, N-(1H-benzo[d]imidazol-2-yl)-4,6-dimethyl-2-oxo-1-phenyl-1,2-dihydropyridine-3-carboxamide]	IC50 [2]: > 100000 nM; IC50 [4]: > 200000 nM
228 to 230 °C	13%	Cc1cc(C)n(-c2ccccc2)c(=O)c1C(=O)Nc1nc2ccccc2o1 [Compound 7c, N-(benzo[d]oxazol-2-yl)-4,6-dimethyl-2-oxo-1-phenyl-1,2-dihydropyridine-3-carboxamide]	
	0%	Cc1ccc(-n2c(C)cc(C)c(C(=O)Nc3nc4ccccc4o3)c2=O)cc1 [Compound 7d, N-(benzo[d]oxazol-2-yl)-4,6-dimethyl-2-oxo-1-(4-methylphenyl)-1,2-dihydropyridine-3-carboxamide]	
198 to 200 °C	0%	Cc1ccc(-n2c(C)cc(C)c(C(=O)Nc3nc4ccccc4[nH]3)c2=O)cc1 [Compound 7e, N-(1H-benzo[d]imidazol-2-yl)-4,6-dimethyl-2-oxo-1-(4-methylphenyl)-1,2-dihydropyridine-3-carboxamide]	
176 to 178 °C	13%	Cc1cc(C)n(-c2ccc(O)cc2)c(=O)c1C(=O)Nc1nc2ccccc2[nH]1 [Compound 7f, N-(1H-benzo[d]imidazol-2-yl)-1-(4-hydroxyphenyl)-4,6-dimethyl-2-oxo-1,2-dihydropyridine-3-carboxamide]	
139 to 140 °C	12%	Cc1cc(C)n(-c2ccccc2)c(=O)c1C(=O)NC1CCCCC1 [Compound 8a, N-cyclohexyl-4,6-dimethyl-2-oxo-1-phenyl-1,2-dihydropyridine-3-carboxamide]	
138 to 140 °C		Cc1cc(C)n(-c2ccccc2)c(=O)c1C(=O)NC1CCCCCC1 [Compound 8b, N-cycloheptyl-4,6-dimethyl-2-oxo-1-phenyl-1,2-dihydropyridine-3-carboxamide]	IC50 [2]: > 100000 nM; IC50 [4]: > 200000 nM
164 to 165 °C		Cc1cc(C)n(-c2ccccc2)c(=O)c1C(=O)NC12CC3CC(CC(C3)C1)C2 [Compound 8c, N-(adamantan-1-yl)-4,6-dimethyl-2-oxo-1-phenyl-1,2-dihydropyridine-3-carboxamide]	IC50 [2]: > 100000 nM; IC50 [4]: > 200000 nM
238 to 240 °C	0%	Cc1ccc(-n2c(C)cc(C)c(C(=O)NC3CCCCCC3)c2=O)cc1 [Compound 8e, N-cycloheptyl-4,6-dimethyl-2-oxo-(4-methylphenyl)-1,2-dihydropyridine-3-carboxamide]	
232 to 233 °C	0%	Cc1cc(C)n(-c2ccc(O)cc2)c(=O)c1C(=O)NC1CCCCCC1 [Compound 8f, N-cycloheptyl-1-(4-hydroxyphenyl)-4,6-dimethyl-2-oxo-1,2-dihydropyridine-3-carboxamide]	
139 to 140 °C	4%	Cc1cc(C)n(-c2ccc(O)cc2)c(=O)c1C(=O)NC1CCCCC1 [Compound 8g, N-cyclohexyl-1-(4-hydroxyphenyl)-4,6-dimethyl-2-oxo-1,2-dihydropyridine-3-carboxamide]	

Structure (SMILES)	melting point	% CB2R Agonist Response [3]	further results
Cc1ccc(-n2c(C)cc(C)c(C(=O)NC34CC5CC(CC(C5)C3)C4)c2=O)cc1 [Compound 8d, N-(adamantan-1-yl)-4,6-dimethyl-2-oxo-1-(4-methylphenyl)-1,2-dihydropyridine-3-carboxamide]	154 to 155 °C		IC50 [2]: > 100000 nM; viability at 72 h, 200 µM [5]: 10%; EC50 [3]: 112 nM; EC50 ([3]; n = 3): 110 nM; IC50 [4]: > 200000 nM; effect on cell viability in HepG2 cells ([4]; concentrations as high as 200 μM, compared to control): did not show significant effect on cell viability
